Data reported in ChEMBL document CHEMBL1137495, “Synthesis and TNF expression inhibitory properties of new thalidomide analogues derived via Heck cross coupling” (2007).
Activity calls are given as the source filed them. No cut-off for these calls is given here.

Legend:
Jurkat [1] = assay: Inhibition of TNF gene expression in FRT Jurkat TNF reporter cells at 100 uM; format: functional; settings: Homo sapiens
Jurkat [2] = assay: Viability of the FRT Jurkat TNF reporter cells at 1 uM; format: functional, Homo sapiens
Jurkat [3] = assay: Inhibition of TNF gene expression in FRT Jurkat TNF reporter cells at 10 uM; format: functional; settings: Homo sapiens
Jurkat [4] = assay: Increase in Cytotoxicity in human FRT Jurkat TNF reporter cell at 100 uM; format: functional, cell-based
Jurkat [5] = assay: Increase in cell death in human FRT Jurkat TNF reporter cell; format: functional, cell-based
Jurkat [6] = assay: Increase in inhibition of TNF gene expression in FRT Jurkat TNF reporter cells after 30 hrs; format: functional, cell-based; settings: Homo sapiens
Jurkat [7] = assay: Inhibition of TNF gene expression in FRT-Jurkat TNF reporter cells at 1 uM; format: functional; settings: Homo sapiens

For O=C1CCC(N2C(=O)c3cccc(I)c3C2=O)C(=O)N1 (centres undefined), the inhibition at 100 µM (Jurkat [1]) was 37%.
In the case of CCCCO/C=C/c1cccc2c1C(=O)N(C1CCC(=O)NC1=O)C2=O (centres undefined), the inhibition at 100 µM (Jurkat [1]) is reported as 47%.
CCCCOC(=O)/C=C/c1cccc2c1C(=O)N(C1CCC(=O)NC1=O)C2=O (centres undefined) was tested, and the inhibition at 100 µM (Jurkat [1]) was 44%.
With CCCCO/C=C/c1ccc2c(c1)C(=O)N(C1CCC(=O)NC1=O)C2=O (centres undefined) the Activity (Jurkat [2]) was 100%, the inhibition at 100 µM (Jurkat [1]) was 69% and the inhibition at 10 µM (Jurkat [3]) was 52%. The Activity (Jurkat [4]) was “Active”, the Activity (Jurkat [5]) was “Active” and the Activity (Jurkat [6]) was “Dose-dependent effect”. The inhibition at 1 µM (Jurkat [7]) was 32%.
COC(=O)/C=C/c1ccccc1N1C(=O)c2ccccc2C1=O was tested, and the inhibition at 100 µM (Jurkat [1]) was 48%.
CCCCO/C=C/c1ccccc1N1C(=O)c2ccccc2C1=O was tested, and the inhibition at 100 µM (Jurkat [1]) was 47%.
With O=C1CCC(N2C(=O)c3cccc(/C=C/N4CCCC4=O)c3C2=O)C(=O)N1 (centres undefined) the inhibition at 100 µM (Jurkat [1]) was 38%.
O=C1c2ccccc2C(=O)N1c1ccc(I)cc1 was tested, and the inhibition at 100 µM (Jurkat [1]) was 36%.
Work on CCCCOC(=O)/C=C/c1ccc(N2C(=O)c3ccccc3C2=O)cc1 yielded an inhibition at 100 µM (Jurkat [1]) of 35%.
Molecule COC(=O)/C=C/c1ccc2c(c1)C(=O)N(C1CCC(=O)NC1=O)C2=O (centres undefined) has an inhibition at 100 µM (Jurkat [1]) of 39%.
Work on O=C1CCC(N2C(=O)c3ccc(Br)cc3C2=O)C(=O)N1 (centres undefined) yielded an inhibition at 100 µM (Jurkat [1]) of 35%.
In the case of O=C1CCCN1/C=C/c1cccc(N2C(=O)c3ccccc3C2=O)c1, the inhibition at 100 µM (Jurkat [1]) is reported as 36%.
CCCCOC(=O)/C=C/c1ccccc1N1C(=O)c2ccccc2C1=O gave an inhibition at 100 µM (Jurkat [1]) of 52%.
O=C1c2ccccc2C(=O)N1c1ccc(C2CC=CO2)cc1 (centres undefined) gave an inhibition at 100 µM (Jurkat [1]) of 38%.
For O=C1CCC(N2C(=O)c3cccc(C4CC=CO4)c3C2=O)C(=O)N1 (centres undefined), the inhibition at 100 µM (Jurkat [1]) was 50%.
O=C1CCC(N2C(=O)c3ccccc3C2=O)C(=O)N1 (centres undefined) [THALIDOMIDE] was tested, and the inhibition at 100 µM (Jurkat [1]) was 38%, the inhibition at 10 µM (Jurkat [3]) was 35% and the inhibition at 1 µM (Jurkat [7]) was 31%.
Work on O=C1c2ccccc2C(=O)N1c1cccc(C2CC=CO2)c1 (centres undefined) yielded an inhibition at 100 µM (Jurkat [1]) of 50%.
In the case of COC(=O)/C=C/c1cccc(N2C(=O)c3ccccc3C2=O)c1, the inhibition at 100 µM (Jurkat [1]) is reported as 44%.
Work on O=C1C=C(c2cccc(N3C(=O)c4ccccc4C3=O)c2)CCC1 yielded an inhibition at 100 µM (Jurkat [1]) of 47%.
Molecule O=C1C=C(c2ccc3c(c2)C(=O)N(C2CCC(=O)NC2=O)C3=O)CCC1 (centres undefined) has an inhibition at 100 µM (Jurkat [1]) of 35%.
Work on O=C1C=C(c2cccc3c2C(=O)N(C2CCC(=O)NC2=O)C3=O)CCC1 (centres undefined) yielded an inhibition at 100 µM (Jurkat [1]) of 38%.
For COC(=O)/C=C/c1ccc(N2C(=O)c3ccccc3C2=O)cc1, the inhibition at 100 µM (Jurkat [1]) was 41%.
O=C1CCC(N2C(=O)c3ccc(/C=C/N4CCCC4=O)cc3C2=O)C(=O)N1 (centres undefined) gave an inhibition at 100 µM (Jurkat [1]) of 36%.
CCCCO/C=C/c1cccc(N2C(=O)c3ccccc3C2=O)c1 showed an inhibition at 100 µM (Jurkat [1]) of 49%.
For COC(=O)/C=C/c1cccc2c1C(=O)N(C1CCC(=O)NC1=O)C2=O (centres undefined), the inhibition at 100 µM (Jurkat [1]) was 40%.
For O=C1CCC(N2C(=O)c3ccc(/C=C/C4CC=CO4)cc3C2=O)C(=O)N1 (centres undefined), the inhibition at 100 µM (Jurkat [1]) was 40%.
Work on CCCCOC(=O)/C=C/c1ccc2c(c1)C(=O)N(C1CCC(=O)NC1=O)C2=O (centres undefined) yielded an inhibition at 100 µM (Jurkat [1]) of 42%.
Molecule O=C1c2ccccc2C(=O)N1c1ccccc1I has an inhibition at 100 µM (Jurkat [1]) of 40%.
With CCCCO/C=C/c1ccc(N2C(=O)c3ccccc3C2=O)cc1 the inhibition at 100 µM (Jurkat [1]) was 48%.
For O=C1c2ccccc2C(=O)N1c1cccc(I)c1, the inhibition at 100 µM (Jurkat [1]) was 37%.
For CCCCOC(=O)/C=C/c1cccc(N2C(=O)c3ccccc3C2=O)c1, the inhibition at 100 µM (Jurkat [1]) was 35%.
